Test results from patent EP0595743B1, “Bihaptinic derivatives for binding technetium or rhenium, process for their preparation, application for diagnosis and therapy, kits and immunological reactants comprising them” (priority 1992, dated 2001).

Experiments:
[1] = test system: tumeurs colorectales humaines (LS174); settings: 2 µg conjugate F6-679.1MC7 24 h earlier, 6,7 µCi (1 pmol)
Protocol: (§1) La liaison du dérivé de l'exemple 3 aux cellules hépatiques s'effectue par l'intermédiaire de sa liaison au site Ac de l'anticorps 679.1MC7, lui même lié par son fragment F(c) à ces cellules. Des souris ayant reçu 2µg d'anticorps 679.1MC7 24 heures plus tôt sont injectées par voie intraveineuse avec 100 µCi (15 pmol) de dérivé de l'exemple 3. Les images sont réalisées avec une caméra Sopha Medical Gammatome 2 équipée avec un collimateur haute résolution de moyenne énergie, puis les animaux sont sacrifiés et la radioactivité présente dans le foie est déterminée à l'aide d'un compteur gamma. […] 100 µCi de dérivé de l'exemple 3 sont injectés à une souris ayant reçu quelques minutes plus tôt 1µg de conjugué anticorps CY34-679.1MC7 (anti-lyb8.2-anti-Histamine-Succinyl-Glycine). Les images sont enregistrées comme indiqué dans l'exemple précédent. […] Des cellules de tumeurs colorectales humaines (cellules LS 174, 3.10^6) sont injectées par voie sous cutanée à des souris nudes. […] Les souris reçoivent alors 2µg de conjugué anticorps F6-679.1MC7 (antiCEA-anti-Histamine-Succinyl-Glycine). Vingt quatre heures plus tard les souris reçoivent 6,7µCi (1pmol) de dérivé de l'exemple 3. Six heures plus tard les images sont enregistrées comme indiqué dans l'exemple précédent puis les animaux sacrifiés.

[2] = test system: lymphocytes de souris BALB/c qui expriment l'antigène Lyb 8.2; settings: 1 µg conjugate CY34-679.1MC7 a few minutes earlier; 100 µCi; 4 h after injection
Protocol: as §1

cellules hépatiques = settings: 2 µg antibody 679.1MC7 24 h earlier; 100 µCi (15 pmol) i.v.; 4 h after injection
Protocol: as §1

cellules LS-174 T = settings: LS-174 T cells 7.10^6/ml, 4 °C, 2 h; nanomolar concentrations of bispecific antibody (anti-CEA/anti-histamine-succinyl-glycine); maximum binding
Protocol: Des cellules LS-174 T (7.10^6 cellules/ml), cellules d'origine humaine connues pour exprimer à leur surface l'antigène carcino-embryonnaire, sont incubées à 4° C pendant 2 heures dans des tubes contenant un tampon phosphate isotonique à pH 7,3. Dans ces tubes, ont été ajoutés à des concentrations variables le conjugué bispécifique approprié (anti-antigène carcino-embryonnaire/anti-histamine-succinyl-glycine), marqué à l'iode-125 suivant une des techniques bien connues et la sonde, marquée au ^99mTc comme décrit ci-dessus. Ces concentrations sont calculées pour couvrir un domaine s'étendant de concentrations très inférieures à très supérieures à la concentration de l'antigène cible dans le mélange. A la fin de cette incubation, 100 µl de mélange sont transférés en triplicates dans des tubes contenant un mélange de phthalates. Les tubes sont centrifugés 30 secondes à environ 5000 g. Les cellules, plus denses que les phthalates, forment un culot alors que le surnageant reste à la surface. On peut alors compter séparément les activités (^125I et ^99mTc) liées aux cellules et les activités non liées et en calculer les rapports.

^99mTc mercaptoacétyl-Glycyl-Glycyl-Glycyl-N-ε-(Histamine-Succinyl-Glycine)-Lysyl-D-Tyrosyl-N-ε-(Histamine-Succinyl-Glycine)-Lysinamide [Exemple 3]
visibilité des tumeurs [1]: visibles dès trois heures après l'injection | localisation de la radioactivité ([1]; 6 h after injection): 9,8 ± 3,7 % / g de tumeur | rapport de marquage tumeur/plasma ([1]; 6 h after injection): 2.0 + 0.5 | % de la dose injectée localisée dans la rate [2]: 43 ± 3 % de la dose injectée | scintigraphie de la rate [2]: apparente en scintigraphie | % de la dose injectée localisée dans le foie (cellules hépatiques): 54 ± 6 % de la dose injectée | scintigraphie du foie (cellules hépatiques): apparent en scintigraphie | pourcentage de sonde lié par rapport à sa quantité totale (cellules LS-174 T): ~70%
